Test results: ChEMBL document CHEMBL5442219

Tests used:
Conditions in all cases: Compound concentration 10 µM
[1] = target: Mu-type opioid receptor (Homo sapiens) (UniProt P35372)
Description: PDSP Primary Binding target: OPRM1 - Compounds are tested at 10 uM concentration, plate are incubated at room temperature in the dark for 90 minutes. Reaction are stopped by vacuum filtration onto 0.3% polyethyleneimine soaked filter mats using Filtermate harvester. Scintilation cocktail is then melted onto microwave-dried filters on a hot plate and the radio activity is counted in Microbia counter.

[2] = target: T1, Alpha-2B adrenergic receptor (Homo sapiens) (UniProt P18089)
T1 sequence (whole entry): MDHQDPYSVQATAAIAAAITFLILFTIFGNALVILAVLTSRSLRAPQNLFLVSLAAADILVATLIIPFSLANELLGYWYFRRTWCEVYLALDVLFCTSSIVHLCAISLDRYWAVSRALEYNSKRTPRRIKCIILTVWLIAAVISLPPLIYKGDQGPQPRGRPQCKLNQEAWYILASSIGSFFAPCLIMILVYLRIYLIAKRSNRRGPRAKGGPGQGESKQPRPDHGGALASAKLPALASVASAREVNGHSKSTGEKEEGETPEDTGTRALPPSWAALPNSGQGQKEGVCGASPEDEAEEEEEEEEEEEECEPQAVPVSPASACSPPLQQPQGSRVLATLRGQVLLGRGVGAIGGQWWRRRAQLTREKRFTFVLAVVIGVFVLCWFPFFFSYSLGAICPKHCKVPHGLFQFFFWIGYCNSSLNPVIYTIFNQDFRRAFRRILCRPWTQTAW
Description: PDSP Primary Binding target: ADRA2B - Compounds are tested at 10 uM concentration, plate are incubated at room temperature in the dark for 90 minutes. Reaction are stopped by vacuum filtration onto 0.3% polyethyleneimine soaked filter mats using Filtermate harvester. Scintilation cocktail is then melted onto microwave-dried filters on a hot plate and the radio activity is counted in Microbia counter.

[3] = target: T2, Muscarinic acetylcholine receptor M5 (Homo sapiens) (UniProt P08912)
T2 sequence (whole entry): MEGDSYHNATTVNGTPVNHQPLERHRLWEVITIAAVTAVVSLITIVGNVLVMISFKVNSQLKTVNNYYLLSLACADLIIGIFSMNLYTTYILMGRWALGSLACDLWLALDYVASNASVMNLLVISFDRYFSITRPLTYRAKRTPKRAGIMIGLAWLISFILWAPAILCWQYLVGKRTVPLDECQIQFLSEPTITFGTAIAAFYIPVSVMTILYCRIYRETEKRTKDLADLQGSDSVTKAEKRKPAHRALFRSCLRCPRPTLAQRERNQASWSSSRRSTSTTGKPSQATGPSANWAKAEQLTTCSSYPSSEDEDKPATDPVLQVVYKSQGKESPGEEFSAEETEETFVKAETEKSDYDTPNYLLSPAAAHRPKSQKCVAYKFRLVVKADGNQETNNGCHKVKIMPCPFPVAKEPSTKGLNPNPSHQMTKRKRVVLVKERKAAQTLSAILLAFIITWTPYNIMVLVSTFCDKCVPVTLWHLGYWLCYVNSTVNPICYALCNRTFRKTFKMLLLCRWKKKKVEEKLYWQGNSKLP
Description: PDSP Primary Binding target: CHRM5 - Compounds are tested at 10 uM concentration, plate are incubated at room temperature in the dark for 90 minutes. Reaction are stopped by vacuum filtration onto 0.3% polyethyleneimine soaked filter mats using Filtermate harvester. Scintilation cocktail is then melted onto microwave-dried filters on a hot plate and the radio activity is counted in Microbia counter.

[4] = target: 5-hydroxytryptamine receptor 6 (Homo sapiens) (UniProt P50406)
Sequence of 5-hydroxytryptamine receptor 6 (Homo sapiens) (P50406 whole entry): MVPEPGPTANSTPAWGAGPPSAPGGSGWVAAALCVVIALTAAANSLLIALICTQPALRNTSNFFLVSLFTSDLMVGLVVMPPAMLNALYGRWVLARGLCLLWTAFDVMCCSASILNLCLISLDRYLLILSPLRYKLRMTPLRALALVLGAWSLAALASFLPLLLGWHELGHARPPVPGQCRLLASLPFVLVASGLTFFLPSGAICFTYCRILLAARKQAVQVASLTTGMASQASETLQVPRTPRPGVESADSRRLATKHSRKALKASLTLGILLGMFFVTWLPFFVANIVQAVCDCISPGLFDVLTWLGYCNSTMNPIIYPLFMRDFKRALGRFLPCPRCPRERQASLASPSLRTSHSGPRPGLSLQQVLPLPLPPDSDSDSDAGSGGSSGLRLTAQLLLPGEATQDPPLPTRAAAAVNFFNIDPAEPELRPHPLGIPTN
Description: PDSP Primary Binding target: HTR6 - Compounds are tested at 10 uM concentration, plate are incubated at room temperature in the dark for 90 minutes. Reaction are stopped by vacuum filtration onto 0.3% polyethyleneimine soaked filter mats using Filtermate harvester. Scintilation cocktail is then melted onto microwave-dried filters on a hot plate and the radio activity is counted in Microbia counter.

[5] = target: Beta-2 adrenergic receptor (Homo sapiens) (UniProt P07550)
Sequence of Beta-2 adrenergic receptor (Homo sapiens) (P07550 whole entry, looked up): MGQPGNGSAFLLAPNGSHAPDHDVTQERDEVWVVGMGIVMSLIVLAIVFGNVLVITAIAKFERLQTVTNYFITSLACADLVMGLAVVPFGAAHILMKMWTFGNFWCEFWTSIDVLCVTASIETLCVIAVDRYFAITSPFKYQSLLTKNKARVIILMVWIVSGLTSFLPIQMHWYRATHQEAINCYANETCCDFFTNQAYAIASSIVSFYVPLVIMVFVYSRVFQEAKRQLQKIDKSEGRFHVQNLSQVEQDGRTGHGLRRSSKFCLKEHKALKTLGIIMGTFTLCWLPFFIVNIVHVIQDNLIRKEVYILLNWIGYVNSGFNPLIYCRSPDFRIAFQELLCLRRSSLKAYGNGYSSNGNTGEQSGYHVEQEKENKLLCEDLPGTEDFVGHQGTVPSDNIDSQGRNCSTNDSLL
Description: PDSP Primary Binding target: ADRB2 - Compounds are tested at 10 uM concentration, plate are incubated at room temperature in the dark for 90 minutes. Reaction are stopped by vacuum filtration onto 0.3% polyethyleneimine soaked filter mats using Filtermate harvester. Scintilation cocktail is then melted onto microwave-dried filters on a hot plate and the radio activity is counted in Microbia counter.

[6] = target: Translocator protein (Homo sapiens) (UniProt P30536)
Sequence of Translocator protein (Homo sapiens) (P30536 whole entry): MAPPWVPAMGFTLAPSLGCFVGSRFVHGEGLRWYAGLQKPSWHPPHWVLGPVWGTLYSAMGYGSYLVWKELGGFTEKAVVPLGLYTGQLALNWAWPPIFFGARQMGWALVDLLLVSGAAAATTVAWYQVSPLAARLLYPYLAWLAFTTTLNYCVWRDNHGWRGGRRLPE
Description: PDSP Primary Binding target: TSPO - Compounds are tested at 10 uM concentration, plate are incubated at room temperature in the dark for 90 minutes. Reaction are stopped by vacuum filtration onto 0.3% polyethyleneimine soaked filter mats using Filtermate harvester. Scintilation cocktail is then melted onto microwave-dried filters on a hot plate and the radio activity is counted in Microbia counter.

[7] = target: T3, 5-hydroxytryptamine receptor 3A (Homo sapiens) (UniProt P46098)
T3 sequence (whole entry): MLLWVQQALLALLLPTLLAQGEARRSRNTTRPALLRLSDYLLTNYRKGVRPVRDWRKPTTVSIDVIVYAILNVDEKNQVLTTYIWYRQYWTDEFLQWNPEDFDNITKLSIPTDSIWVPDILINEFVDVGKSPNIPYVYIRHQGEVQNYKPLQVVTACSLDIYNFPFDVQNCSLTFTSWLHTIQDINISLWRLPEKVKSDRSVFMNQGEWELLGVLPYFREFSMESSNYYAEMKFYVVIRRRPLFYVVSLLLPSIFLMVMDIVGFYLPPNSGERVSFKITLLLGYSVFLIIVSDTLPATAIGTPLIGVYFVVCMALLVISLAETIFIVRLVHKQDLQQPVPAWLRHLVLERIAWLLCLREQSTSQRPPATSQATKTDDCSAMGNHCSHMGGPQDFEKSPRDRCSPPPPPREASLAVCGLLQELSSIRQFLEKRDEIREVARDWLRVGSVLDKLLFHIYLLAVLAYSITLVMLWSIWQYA
Description: PDSP Primary Binding target: HTR3A - Compounds are tested at 10 uM concentration, plate are incubated at room temperature in the dark for 90 minutes. Reaction are stopped by vacuum filtration onto 0.3% polyethyleneimine soaked filter mats using Filtermate harvester. Scintilation cocktail is then melted onto microwave-dried filters on a hot plate and the radio activity is counted in Microbia counter.

[8] = target: Sodium-dependent noradrenaline transporter (Homo sapiens) (UniProt P23975)
Sequence of Sodium-dependent noradrenaline transporter (Homo sapiens) (P23975 whole entry): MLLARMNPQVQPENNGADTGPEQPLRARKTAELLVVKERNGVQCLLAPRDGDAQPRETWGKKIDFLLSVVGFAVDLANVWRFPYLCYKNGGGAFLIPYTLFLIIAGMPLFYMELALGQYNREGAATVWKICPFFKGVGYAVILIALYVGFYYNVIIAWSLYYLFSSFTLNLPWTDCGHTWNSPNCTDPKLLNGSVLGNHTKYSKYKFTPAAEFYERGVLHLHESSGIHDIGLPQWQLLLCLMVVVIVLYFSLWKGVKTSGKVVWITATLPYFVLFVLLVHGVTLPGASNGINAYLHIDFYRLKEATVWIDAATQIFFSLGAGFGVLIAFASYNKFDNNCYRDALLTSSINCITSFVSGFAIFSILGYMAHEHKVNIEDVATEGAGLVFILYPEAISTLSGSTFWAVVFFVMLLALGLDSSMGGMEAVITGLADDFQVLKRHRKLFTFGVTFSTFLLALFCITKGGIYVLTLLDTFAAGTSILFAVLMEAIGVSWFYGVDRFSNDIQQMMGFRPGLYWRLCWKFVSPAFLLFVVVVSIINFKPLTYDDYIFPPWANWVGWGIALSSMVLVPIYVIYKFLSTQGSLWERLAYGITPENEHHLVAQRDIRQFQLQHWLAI
Description: PDSP Primary Binding target: SLC6A2 - Compounds are tested at 10 uM concentration, plate are incubated at room temperature in the dark for 90 minutes. Reaction are stopped by vacuum filtration onto 0.3% polyethyleneimine soaked filter mats using Filtermate harvester. Scintilation cocktail is then melted onto microwave-dried filters on a hot plate and the radio activity is counted in Microbia counter.

[9] = target: Delta-type opioid receptor (Homo sapiens) (UniProt P41143)
Sequence of Delta-type opioid receptor (Homo sapiens) (P41143 whole entry): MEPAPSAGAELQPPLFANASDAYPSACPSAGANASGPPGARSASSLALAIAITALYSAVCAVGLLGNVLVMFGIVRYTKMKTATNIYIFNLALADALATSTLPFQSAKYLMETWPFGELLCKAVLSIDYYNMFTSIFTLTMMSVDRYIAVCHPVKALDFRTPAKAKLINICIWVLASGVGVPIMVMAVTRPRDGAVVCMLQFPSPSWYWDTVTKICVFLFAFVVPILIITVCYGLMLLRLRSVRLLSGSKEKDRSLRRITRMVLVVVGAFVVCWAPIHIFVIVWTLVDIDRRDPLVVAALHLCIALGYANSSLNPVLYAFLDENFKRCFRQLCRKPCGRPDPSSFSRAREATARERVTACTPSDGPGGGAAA
Description: PDSP Primary Binding target: OPRD1 - Compounds are tested at 10 uM concentration, plate are incubated at room temperature in the dark for 90 minutes. Reaction are stopped by vacuum filtration onto 0.3% polyethyleneimine soaked filter mats using Filtermate harvester. Scintilation cocktail is then melted onto microwave-dried filters on a hot plate and the radio activity is counted in Microbia counter.

[10] = target: T4, Alpha-1B adrenergic receptor (Homo sapiens) (UniProt P35368)
T4 sequence (whole entry): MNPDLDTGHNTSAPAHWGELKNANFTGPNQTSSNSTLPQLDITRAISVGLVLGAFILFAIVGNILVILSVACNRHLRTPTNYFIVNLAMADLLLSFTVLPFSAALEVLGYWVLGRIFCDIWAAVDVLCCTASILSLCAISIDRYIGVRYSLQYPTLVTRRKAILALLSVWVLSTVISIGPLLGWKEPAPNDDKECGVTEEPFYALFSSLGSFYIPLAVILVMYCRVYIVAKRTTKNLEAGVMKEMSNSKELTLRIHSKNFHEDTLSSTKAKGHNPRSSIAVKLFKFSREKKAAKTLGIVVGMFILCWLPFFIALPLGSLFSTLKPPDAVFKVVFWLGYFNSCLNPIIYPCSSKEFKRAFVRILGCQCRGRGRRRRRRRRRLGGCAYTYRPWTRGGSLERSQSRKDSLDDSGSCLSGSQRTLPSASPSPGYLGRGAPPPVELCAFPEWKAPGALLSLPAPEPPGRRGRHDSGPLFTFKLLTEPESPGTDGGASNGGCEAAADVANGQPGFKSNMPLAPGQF
Description: PDSP Primary Binding target: ADRA1B - Compounds are tested at 10 uM concentration, plate are incubated at room temperature in the dark for 90 minutes. Reaction are stopped by vacuum filtration onto 0.3% polyethyleneimine soaked filter mats using Filtermate harvester. Scintilation cocktail is then melted onto microwave-dried filters on a hot plate and the radio activity is counted in Microbia counter.

[11] = target: Sigma non-opioid intracellular receptor 1 (Homo sapiens) (UniProt Q99720)
Sequence of Sigma non-opioid intracellular receptor 1 (Homo sapiens) (Q99720 whole entry): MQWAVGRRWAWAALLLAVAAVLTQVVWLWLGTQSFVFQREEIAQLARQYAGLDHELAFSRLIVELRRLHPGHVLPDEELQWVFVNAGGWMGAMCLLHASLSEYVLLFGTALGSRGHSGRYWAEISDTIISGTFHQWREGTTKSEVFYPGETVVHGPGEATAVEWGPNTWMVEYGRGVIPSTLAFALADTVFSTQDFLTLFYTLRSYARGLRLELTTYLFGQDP
Description: PDSP Primary Binding target: SIGMAR1 - Compounds are tested at 10 uM concentration, plate are incubated at room temperature in the dark for 90 minutes. Reaction are stopped by vacuum filtration onto 0.3% polyethyleneimine soaked filter mats using Filtermate harvester. Scintilation cocktail is then melted onto microwave-dried filters on a hot plate and the radio activity is counted in Microbia counter.

[12] = target: Sodium-dependent dopamine transporter (Homo sapiens) (UniProt Q01959)
Sequence of Sodium-dependent dopamine transporter (Homo sapiens) (Q01959 whole entry): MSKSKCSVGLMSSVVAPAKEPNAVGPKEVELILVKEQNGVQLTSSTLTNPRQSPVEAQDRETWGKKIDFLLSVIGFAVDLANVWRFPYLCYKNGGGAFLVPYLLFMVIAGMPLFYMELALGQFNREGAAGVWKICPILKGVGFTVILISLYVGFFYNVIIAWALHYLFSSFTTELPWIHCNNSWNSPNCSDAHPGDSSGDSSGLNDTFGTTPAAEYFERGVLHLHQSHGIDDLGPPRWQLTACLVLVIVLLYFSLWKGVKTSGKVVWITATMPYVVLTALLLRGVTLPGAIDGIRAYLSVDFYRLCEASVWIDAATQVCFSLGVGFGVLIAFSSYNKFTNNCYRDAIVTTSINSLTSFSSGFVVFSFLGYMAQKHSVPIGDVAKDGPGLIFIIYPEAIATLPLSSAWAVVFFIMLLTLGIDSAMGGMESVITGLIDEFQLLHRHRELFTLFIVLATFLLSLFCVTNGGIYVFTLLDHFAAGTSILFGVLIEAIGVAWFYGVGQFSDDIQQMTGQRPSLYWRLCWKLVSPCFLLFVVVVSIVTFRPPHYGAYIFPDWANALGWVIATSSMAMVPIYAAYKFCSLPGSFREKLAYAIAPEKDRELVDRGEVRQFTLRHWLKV
Description: PDSP Primary Binding target: SLC6A3 - Compounds are tested at 10 uM concentration, plate are incubated at room temperature in the dark for 90 minutes. Reaction are stopped by vacuum filtration onto 0.3% polyethyleneimine soaked filter mats using Filtermate harvester. Scintilation cocktail is then melted onto microwave-dried filters on a hot plate and the radio activity is counted in Microbia counter.

[13] = target: Kappa-type opioid receptor (Homo sapiens) (UniProt P41145)
Sequence of Kappa-type opioid receptor (Homo sapiens) (P41145 whole entry): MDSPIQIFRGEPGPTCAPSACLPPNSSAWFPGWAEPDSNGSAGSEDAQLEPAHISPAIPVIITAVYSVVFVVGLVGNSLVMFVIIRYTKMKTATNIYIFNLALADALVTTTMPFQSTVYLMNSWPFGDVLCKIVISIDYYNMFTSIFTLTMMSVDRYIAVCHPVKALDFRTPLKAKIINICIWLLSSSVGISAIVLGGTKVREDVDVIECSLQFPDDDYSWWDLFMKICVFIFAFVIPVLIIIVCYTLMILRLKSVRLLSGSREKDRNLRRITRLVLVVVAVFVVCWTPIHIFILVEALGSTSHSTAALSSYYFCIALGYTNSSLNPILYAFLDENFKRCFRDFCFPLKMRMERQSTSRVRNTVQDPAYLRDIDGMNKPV
Description: PDSP Primary Binding target: OPRK1 - Compounds are tested at 10 uM concentration, plate are incubated at room temperature in the dark for 90 minutes. Reaction are stopped by vacuum filtration onto 0.3% polyethyleneimine soaked filter mats using Filtermate harvester. Scintilation cocktail is then melted onto microwave-dried filters on a hot plate and the radio activity is counted in Microbia counter.

Sequence of Mu-type opioid receptor (Homo sapiens) (P35372 whole entry): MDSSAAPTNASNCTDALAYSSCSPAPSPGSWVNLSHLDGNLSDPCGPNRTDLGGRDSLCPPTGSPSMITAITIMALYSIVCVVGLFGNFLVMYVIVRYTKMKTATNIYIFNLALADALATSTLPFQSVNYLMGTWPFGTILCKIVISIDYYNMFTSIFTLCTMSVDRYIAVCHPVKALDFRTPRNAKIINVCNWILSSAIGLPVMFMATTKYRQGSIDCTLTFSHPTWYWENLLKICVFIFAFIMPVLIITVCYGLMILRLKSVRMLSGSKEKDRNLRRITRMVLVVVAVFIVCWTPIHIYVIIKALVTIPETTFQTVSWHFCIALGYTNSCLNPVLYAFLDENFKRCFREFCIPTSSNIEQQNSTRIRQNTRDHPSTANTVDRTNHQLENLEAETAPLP

SMILES | inhibition [1] [%] | inhibition [2] [%] | inhibition [3] [%] | inhibition [4] [%] | inhibition [5] [%] | inhibition [6] [%] | inhibition [7] [%] | inhibition [8] [%] | inhibition [9] [%] | inhibition [10] [%] | inhibition [11] [%] | inhibition [12] [%] | inhibition [13] [%]
CNC[C@H](O)c1cccc(O)c1 | 2.89 | 21.3 | -2.82 | 9.39 | -1.97 | 11.8 | 0.2 | 8.86 | 13.8 | 10.8 | – | – | –
COc1cc(-n2cnc3cc(-c4ccc(Cl)cc4)sc3c2=O)ccc1OCCN1CCCC1 | 37.9 | 47.6 | 64.9 | -7.71 | 17.8 | 11.9 | 22.5 | 80.4 | 28.9 | 27.2 | 98.9 | 66.4 | 33.2
CCN(CC)CCCCC1CCN(CC(=O)N2c3ccccc3C(=O)Nc3cccnc32)CC1 | 10.4 | -3.71 | 72.4 | -7.42 | 5.55 | -2.79 | 3.5 | 15.3 | 24.6 | -0.95 | – | 28.1 | –
COc1ccc(NS(=O)(=O)c2sc3ccc(Cl)cc3c2C)cc1N1CCNCC1 | 56.3 | 35.1 | 16.8 | 87.3 | 32.3 | 39.5 | 73.3 | 61.7 | 29.8 | 65.1 | 83.6 | 63.1 | 75.5
S=C(NCCCc1c[nH]cn1)NCCCN(Cc1ccc(Cl)c(Cl)c1)c1ccc(Br)cn1 | 28.7 | 94.8 | 87.6 | 74 | 40 | 30.9 | 33.5 | 94.1 | 27 | 89.3 | 1.54 | 94.8 | 64.9
CN1C(=O)[C@@H](NC(=O)c2cc3ccccc3[nH]2)N=C(c2ccccc2)c2ccccc21 | 5.76 | 34.7 | -5.02 | 25.7 | 4.31 | 59.1 | 2.09 | 28.5 | 13 | -6.37 | – | 42.1 | 30.7
NC[C@@H]1O[C@H](C23CC4CC(CC(C4)C2)C3)Cc2c1ccc(O)c2O | – | 64.3 | 29.6 | 19.1 | 29.6 | -5.61 | 39.6 | 58.5 | 3.82 | 56.9 | 48.5 | 68.4 | 12.2
OC1(c2ccc(Cl)cc2)CCN(Cc2c[nH]c3ccccc23)CC1 | 65 | 83.8 | 70.8 | -7.57 | -1.99 | -2.88 | -7.87 | 63.5 | 3.7 | 37.1 | 2.38 | 80 | 3.1
O=C(c1cc2c(cc1F)OC(c1ccc(F)cc1)(c1ccc(Cl)cc1Cl)O2)N1CCOCC1 (stereo unspecified) | 52.7 | 28.5 | -6.56 | -8.59 | 5.79 | 49.3 | 1.36 | 52 | 24.5 | – | 48.5 | 59 | 71.4
CCOC(=O)c1c(C)[nH]c2ccc3c(c12)CN1CCc2cc(OC)ccc2C1O3 (stereo unspecified) | 56.5 | 60 | 2.39 | 10.8 | 23.2 | 28.3 | 75.4 | 51 | -2.17 | 27.5 | 29.3 | 82.9 | 57.4
COc1ccc(S(=O)(=O)N2c3ccc(Cl)cc3[C@](O)(c3ccccc3Cl)[C@@H]2C(=O)N2CCC[C@H]2C(N)=O)cc1OC | 38.8 | 0.34 | 7.17 | -1.14 | 6.53 | – | -3.87 | 2.92 | 19 | 2.62 | 16.4 | 42.4 | 16.3
Cc1cccc([C@H](C)c2c[nH]cn2)c1C | – | 97.8 | 3.92 | 1.41 | 20.7 | -0.25 | 13.3 | 50.9 | -4.15 | 54.8 | 1.54 | 39.2 | –
COc1ccc(Br)cc1S(=O)(=O)NC(=O)/C=C/c1ccccc1Cc1ccc2ccccc2c1 | 22.1 | -4.1 | 16.9 | -2.73 | -2.54 | 17.7 | 3.03 | -0.94 | -2.75 | -0.54 | 11 | – | 1.49
COc1cccc([C@H](O)C2CCN(CCc3ccc(F)cc3)CC2)c1OC | 8.06 | 71.7 | -8.31 | 5.14 | 5.48 | -6.18 | 9.53 | 45.2 | 4.4 | 57.3 | 3.05 | 15.6 | –
Cc1nc(-c2ccc(-c3ccc(C(=O)N4CCc5cc6c(cc54)C4(CCN(C)CC4)CO6)cc3)c(C)c2)no1 | -2.77 | 69.5 | 93.6 | -6.79 | 10.4 | 24.4 | 43.9 | 69.2 | -1.39 | 16.4 | 75.2 | 70.2 | –
